Source: patent publication US5635391A, “Isolated DNA encoding a nitrilase polypeptide, hosts containing, and expression thereof optionally assisted by a E. coli GroE chaperone polypeptide” (priority 1992, dated 1997)

Key:
E. coli TG1 pXL2035,2158 = test: Nitrilase activity of recombinant strain E. coli TG1 pXL2035,2158; type: cell-based; settings: no IPTG; whole cells; DW 0.06 g/l; 1 ml; pH 7.0; substrate 50 mM
Procedure: (§1) The activities of these strains, induced or non-induced, are measured on adiponitrile and 5-cyanovalerate at different pH values and are compared with the negative control strains: E. coli TG1, E. coli TG1 (pXL2035) and Pseudomonas putida G2081.
(§2) The cultures are carried out under the conditions described in Table 4. During the exponential growth phase, one of the two cultures of the recombinant strain is induced with 1 mM IPTG; after 2 h at 37° C., this culture is treated.
(§3) The conditions of the specific activity measurements and the results are collated in Table 5.
(§4) COMMON CONDITIONS: [substrate]=50 mM; T=25° C.; buffer 50 mM; kinetics over 90 min for 1 to 3 and over 120 min for 4 to 8.
(§5) ABBREVIATIONS: W=whole cells; S=sonicated cells; Ua=μmols of cyanovalerate produced/h; Ub=μmols of adipate produced/h; AdN=adiponitrile; CVA=5-cyanovalerate. DW=dry weight.

E. coli (pXL2087) [1] = test: Batch hydrolysis of adiponitrile with E. coli (pXL2087) in suspension; type: cell-based; settings: pH 7, 25° C., cells 21 g/l
Procedure: 120 μl or 1068 μmol of adiponitrile were added at 25° C. and with magnetic stirring, at the reaction times 0, 1, 2, 3, 5, 6 and 7 h, to an initial volume of 5 ml of 50 mM phosphate buffer, pH 7, containing the strain E. coli (pXL2087) at an initial concentration of 21 g/l. The reaction was monitored analytically by taking 100 μl samples of the reaction volume every hour.
The mean activities calculated over 30 min after addition of the adiponitrile are collated in Table 6 below.

E. coli TG1 = test: Nitrilase activity of control strain E. coli TG1; type: cell-based; settings: no IPTG, whole cells, DW 15.5 g/l, 1 ml, substrate 50 mM, 25° C.
Procedure: as §1, §2, §3, §4, §5

P. putida G2081 pDSK519 = test: Nitrilase activity of control strain P. putida G2081 pDSK519; type: cell-based, Pseudomonas putida; settings: no IPTG; whole cells; DW 0.3 g/l; 1 ml; pH 7.0; substrate 50 mM
Procedure: as §1, §2, §3, §4, §5

[2] = test system: E. coli (pXL2087) immobilized on resin; test: Hydrolysis of adiponitrile in a fixed bed reactor with immobilized E. coli (pXL2087); type: cell-based; settings: 28° C., adiponitrile 50 mM, pH 7, flow rate 3.7 ml/h
Procedure: The half-life is determined in a continuously fed fixed bed reactor under the conditions indicated below:
T 28° C.; catalyst 0.5 g or 2 ml or 85 mg of cells (dry weight); [adiponitrile] 50 mM; phosphate buffer 50 mM, pH 7; flow rate 3.7±0.1 ml/h; column: diameter 1 cm, height 3 cm.
The initial activity of the cells was 1.5 μmol of adipate/h/mg of cells (dry weight). 66% of the initial activity is preserved after 32 days or 770 h.

E. coli TG1 pXL2158 = test: Nitrilase activity of recombinant strain E. coli TG1 pXL2158; type: cell-based; settings: no IPTG; whole cells; DW 0.24 g/l; 1 ml; pH 7.0; substrate 50 mM
Procedure: as §1, §2, §3, §4, §5

[3] = test system: Comamonas testosteroni sp.; test: Enzymatic activity of Comamonas testosteroni sp. cells on adiponitrile; type: cell-based; settings: 52.3 mM adiponitrile, pH 7, 25° C.; 1 U = 1 μmol of product formed per minute
Procedure: A cellular residue containing 13.1 mg of dry weight of cells was suspended in 2 ml of a 52.3 mM solution of adiponitrile in 50 mM potassium phosphate buffer, pH 7. The reaction was carried out at 25° C., with shaking, and the kinetics were followed by sampling. 5-Cyanovaleramide, adipamide, 5-cyanovalerate, adipamate and adipate were determined on each sample by high performance liquid chromatography (HPLC). […] The respective rates of formation of cyanovalerate and adipate were greater than 0.45 and equal to 0.15 U/mg of dry weight of cells (1 U is equal to 1 μmol of product formed per minute).

E. coli TG1 pXL2035 = test: Nitrilase activity of control strain E. coli TG1 pXL2035; type: cell-based; settings: no IPTG; whole cells; DW 0.06 g/l; 1 ml; pH 7.0; substrate 50 mM
Procedure: as §1, §2, §3, §4, §5

E. coli TG1 pXL2087 = test: Nitrilase activity of recombinant strain E. coli TG1 pXL2087; type: cell-based; settings: substrate 50 mM; for Activity Ua: DW 0.3 g/l, pH 4.2
Procedure: as §1, §2, §3, §4, §5

E. coli (pXL2087) [4] = test: Activity of immobilized and free E. coli (pXL2087) cells on adiponitrile; type: cell-based; settings: 25° C., pH 7, 50 mM adiponitrile
Procedure: The cells were fixed according to the following protocol:
The gram of cells was suspended in the polyazetidine solution. After homogenization, the resin was poured into the cell suspension. The whole was stirred with a spatula and then left to dry for 18 h, open to the air, under a hood. 4 ml or 1.3 g of biocatalyst were thus collected. The activities of the immobilized and free cells were determined at 25° C. and pH 7 on a 50 mM solution of adiponitrile. They are respectively 30 and 110 μmol of […]/h/mg of cells DW, from which a fixing yield of 26% is deduced.

purified nitrilase = target: T1, purified nitrilase (Comamonas testosteroni, UniProt Q59329); test: Activity of the purified nitrilase as a function of the pH; type: biochemical, Comamonas testosteroni sp.; settings: substrate 10 mM, 25° C., U = μmol of cyanovalerate formed/h
T1 construct: about 280 kDa oligomer of about 38 kDa subunits
T1 sequence (Q59329 entry or part of it): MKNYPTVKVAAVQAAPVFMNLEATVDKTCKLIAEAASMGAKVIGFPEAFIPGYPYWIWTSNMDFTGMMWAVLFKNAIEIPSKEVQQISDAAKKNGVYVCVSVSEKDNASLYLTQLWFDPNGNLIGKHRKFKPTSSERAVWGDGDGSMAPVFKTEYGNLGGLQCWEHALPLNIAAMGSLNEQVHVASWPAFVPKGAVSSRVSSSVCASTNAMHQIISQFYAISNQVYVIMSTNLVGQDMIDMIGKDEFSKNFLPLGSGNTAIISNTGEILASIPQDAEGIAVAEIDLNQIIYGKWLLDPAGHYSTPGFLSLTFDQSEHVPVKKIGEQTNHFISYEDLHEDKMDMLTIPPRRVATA
Procedure: The purified nitrilase was tested at different pH values on two substrates, adiponitrile and 5-cyanovalerate, under the conditions indicated in Table 2 below.
COMMON CONDITIONS: [substrate]=10 mM; buffer 10 mM; T 25° C.; [nitrilase]=12 μg/ml for cyanovalerate and 3 μg/ml for adiponitrile (fraction, step 6); U (adiponitrile)=μmol of cyanovalerate formed/h, U (cyanovalerate)=μmol of adipate formed/h.

## N#CCCCCC#N [Adiponitrile, adiponitrile]
E. coli TG1 pXL2035,2158
  Activity Ua: 1500 μmols of cyanovalerate produce
E. coli (pXL2087) [1]; reaction time 0.5 h
  SPECIFIC ACTIVITY (mean over 30 min after addition of adiponitrile): 16 μmol of adipate/h x mg of dry cells
E. coli (pXL2087) [1]; reaction time 2.5 h
  SPECIFIC ACTIVITY (mean over 30 min after addition of adiponitrile): 15 μmol of adipate/h x mg of dry cells
E. coli (pXL2087) [1]; reaction time 5.5 h
  SPECIFIC ACTIVITY (mean over 30 min after addition of adiponitrile): 11 μmol of adipate/h x mg of dry cells
E. coli (pXL2087) [1]; reaction time 6.5 h
  SPECIFIC ACTIVITY (mean over 30 min after addition of adiponitrile): 11 μmol of adipate/h x mg of dry cells
E. coli (pXL2087) [1]; reaction time 7.7 h
  SPECIFIC ACTIVITY (mean over 30 min after addition of adiponitrile): 15 μmol of adipate/h x mg of dry cells
E. coli TG1; pH 5.2
  Activity Ub: 0 μmols of adipate produced/h
E. coli TG1; pH 7.0
  Activity Ub: 0 μmols of adipate produced/h
P. putida G2081 pDSK519
  Activity Ua: 0 μmols of cyanovalerate produce
[2]
  initial activity of the cells: 1.5 μmol of adipate/h/mg of cells (dry weight)
E. coli TG1 pXL2158
  Activity Ua: 270 μmols of cyanovalerate produce
[3]
  rate of formation of adipate: 0.15 U/mg of dry weight of cells
  rate of formation of cyanovalerate: greater than 0.45 U/mg of dry weight of cells
E. coli TG1 pXL2035
  Activity Ua: 0 μmols of cyanovalerate produce
  Activity Ub: 0 μmols of adipate produced/h
E. coli TG1 pXL2087; +IPTG, sonicated cells, DW 1.4 g/l, 2 ml, pH 6.2
  Activity Ub: 17 μmols of adipate produced/h
E. coli TG1 pXL2087; +IPTG, sonicated cells, DW 1.4 g/l, 2 ml, pH 7.0
  Activity Ub: 10 μmols of adipate produced/h
E. coli TG1 pXL2087; +IPTG, whole cells, 1 ml
  Activity Ua: 159 μmols of cyanovalerate produce
E. coli TG1 pXL2087; +IPTG, whole cells, DW 1.4 g/l, 1 ml, pH 4.3
  Activity Ub: 38 μmols of adipate produced/h
E. coli TG1 pXL2087; +IPTG, whole cells, DW 1.4 g/l, 2 ml, pH 6.2
  Activity Ub: 18 μmols of adipate produced/h
E. coli TG1 pXL2087; +IPTG, whole cells, DW 1.4 g/l, 2 ml, pH 7.0
  Activity Ub: 11 μmols of adipate produced/h
E. coli TG1 pXL2087; no IPTG, sonicated cells, DW 1.0 g/l, 1 ml, pH 6.2
  Activity Ub: 3 μmols of adipate produced/h
E. coli TG1 pXL2087; no IPTG, sonicated cells, DW 1.0 g/l, 1 ml, pH 7.0
  Activity Ub: 4 μmols of adipate produced/h
E. coli TG1 pXL2087; no IPTG, whole cells, 1 ml
  Activity Ua: 75 μmols of cyanovalerate produce
E. coli TG1 pXL2087; no IPTG, whole cells, DW 1.2 g/l, 2 ml, pH 4.3
  Activity Ub: 16 μmols of adipate produced/h
E. coli TG1 pXL2087; no IPTG, whole cells, DW 1.2 g/l, 2 ml, pH 6.2
  Activity Ub: 11 μmols of adipate produced/h
E. coli TG1 pXL2087; no IPTG, whole cells, DW 1.2 g/l, 2 ml, pH 7.0
  Activity Ub: 3.4 μmols of adipate produced/h
E. coli (pXL2087) [4]
  activity of the free cells: 110 μmol of 2-cyanovalerate/h/mg of cells DW
  activity of the immobilized cells: 30 μmol of 2-cyanovalerate/h/mg of cells DW
Purified nitrilase; Acetate pH 3.0
  SPECIFIC ACTIVITY: 2,300 U/mg of protein
Purified nitrilase; Acetate pH 4.0
  SPECIFIC ACTIVITY: 2,900 U/mg of protein
Purified nitrilase; Acetate pH 4.5
  SPECIFIC ACTIVITY: 2,800 U/mg of protein
Purified nitrilase; Acetate pH 5.0
  SPECIFIC ACTIVITY: 2,700 U/mg of protein
Purified nitrilase; Phosphate pH 6.0
  SPECIFIC ACTIVITY: 2,900 U/mg of protein
Purified nitrilase; Phosphate pH 7.0
  SPECIFIC ACTIVITY: 2,700 U/mg of protein
Purified nitrilase; Phosphate pH 8.0
  SPECIFIC ACTIVITY: 2,800 U/mg of protein
